Test results as given in US20250388575A1, “HETEROBIFUNCTIONAL COMPOUNDS AND METHODS OF TREATING DISEASE” (Halda Therapeutics OpCo, Inc., priority 2022, published 2025).
Like-named read-outs stand apart in the source and are kept apart here.

How the values were obtained:
T47D cells = experiment: Cellular growth inhibition assay for T47D cells, CellTiter-Glo; format: cell-based, human; conditions: 72 hours treatment, CellTiter-Glo 2.0
Procedure: T47D cells were purchased from American Type Cell Culture (ATCC Cat #HTB-133) and then seeded on poly-D-lysine coated, black clear-bottom 384-well plates at 3000/well in 25 μL Dulbecco's Modified Eagle Medium (DMEM) supplemented with 10% w/w Fetal bovine serum (FBS), 0.2 units/mL recombinant human insulin (Gibco Cat #12585014), and 1% w/w Pen-Strep. Pen-Strep is a commercially available mixture of penicillin G and streptomycin, which is used in mammalian cell culture media to prevent bacterial contamination. Dulbecco's Modified Eagle Medium (DMEM) supplemented with 10% w/w fetal bovine serum (FBS), 0.2 units/mL recombinant human insulin, and 1% w/w Pen-Strep is herein referred to as Treatment Medium. Following seeding of cells in the plates, the plates were spun at 300×g for 30 seconds, then equilibrated to room temperature for 30 minutes, and then deposited in a humidified tissue culture incubator maintained at 37° C. with 5% CO2.
At 24 hours after seeding of the cells, dilutions of test compound were prepared in DMSO and dissolved in Treatment Medium, to achieve a final DMSO concentration of 0.5% w/w, thereby providing the Test Compound Solution. A 25 μL aliquot of the Test Compound Solution was added to cells in the well plates. An equal volume of a solution containing DMSO and Treatment Medium was used as a negative control. Following treatment of cells with Test Compound Solution or said equal volume of a solution containing DMSO and Treatment Medium, the plates were spun at 300×g for 30 seconds, and then left in an incubator for 72 hours.
At the end of the treatment duration, cell viability was quantified with CellTiter-Glo 2.0 reagent (Promega Cat #G9243). For this purpose, plates were equilibrated to room temperature for 30 minutes, and then 25 μL of CellTiter-Glo 2.0 reagent was added to cells in the plate wells. Plates were then agitated on a shaker for two minutes at 500 rpm and subsequently incubated at room temperature for 10 minutes. Following incubation, the plates were spun at 3000×g for 30 seconds, then sealed with an optical adhesive cover, and luminescence readings were measured with an EnVision Plate Reader (Perkin Elmer).
Data was normalized using zero luminescence for baseline. A four-parameter non-linear regression curve fit was applied to dose-response data in GraphPad Prism data analysis software to determine the half-maximal growth inhibitory concentration (GI50) for each test compound.

[1] = tested on: T-Rex 293 cell line SC3 cells lacking increased expression of androgen receptor protein; experiment: Cellular growth inhibition, T-Rex 293 SC3 cells lacking increased androgen receptor expression (no doxycycline), CellTiter-Glo; format: cell-based; conditions: T-Rex 293 SC3 cells lacking increased androgen receptor expression (not exposed to doxycycline), 72 hours, CellTiter-Glo; read-out: GI50
Summary of the method: (§1)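 SC3, a T-Rex 293 clone with doxycycline-inducible wild-type androgen receptor, was seeded in phenol red-free DMEM with 10% charcoal-dextran FBS, with or without 10 ng/mL doxycycline. Compound added at 24 h (0.5% DMSO) for 72 h at 37° C. CellTiter-Glo 2.0 luminescence; GI50 from four-parameter fit.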

VCaP cells = experiment: Cellular growth inhibition assay for VCaP cells, CellTiter-Glo; format: cell-based, human; conditions: VCaP cells, 72 hours, CellTiter-Glo, read-out: GI50
Summary of the method: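 GI50 values come from four-parameter curve fits of luminescence data normalized to a zero baseline. Compound, in medium with 0.5% DMSO, was added one day after plating and left for 72 h before CellTiter-Glo 2.0 addition.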

[2] = tested on: T-Rex 293 cell line SC3 cells having increased expression of androgen receptor protein; experiment: Cellular growth inhibition, T-Rex 293 SC3 cells with increased androgen receptor expression (doxycycline), CellTiter-Glo; format: cell-based; conditions: T-Rex 293 SC3 cells with increased androgen receptor expression (exposed to 10 ng/mL doxycycline), 72 hours, CellTiter-Glo; read-out: GI50
Summary of the method: as §1

GI50 (T47D cells; Homo sapiens) [nM]	GI50 (VCaP cells; Homo sapiens) [nM]	GI50 (T47D cells) [nM]	GI50 (VCaP cells) [nM]	Structure (SMILES)	GI50 [1] [nM]	GI50 [2] [nM]
< 500	< 500	–	–	CN(C1CCN(c2ccc(C(=O)N[C@H]3CC[C@H](Oc4ccc(C#N)c(Cl)c4)CC3)nn2)CC1)C1CN(c2ccc(Oc3ccc(C(C)(C)O)cc3-c3cn(C)c(=O)c4[nH]ccc34)cc2)C1 [I-140]	< 500	< 500
–	–	< 500	< 500	Cn1cc(-c2cc(C(C)(C)O)ccc2Oc2ccc(N3CC4(CCN(c5ccc(C(=O)N[C@H]6CC[C@H](Oc7ccc(C#N)c(Cl)c7)CC6)nn5)CC4)C3)cc2)c2cc[nH]c2c1=O [I-144]	500 to 1500	< 500
< 500	< 500	–	–	Cn1cc(-c2cc(C(C)(C)O)ccc2Oc2ccc(N3CC(OC4CCN(c5ccc(C(=O)N[C@H]6CC[C@H](Oc7ccc(C#N)c(Cl)c7)CC6)nn5)CC4)C3)cc2)c2cc[nH]c2c1=O [I-146]	< 500	< 500
< 500	< 500	–	–	Cn1cc(-c2cc(C(C)(C)O)ccc2Oc2ccc(N3CC(CC4CCN(c5ccc(C(=O)N[C@H]6CC[C@H](Oc7ccc(C#N)c(Cl)c7)CC6)nn5)CC4)C3)cc2)c2cc[nH]c2c1=O [I-147]	> 3000	< 500

Further lines, the molecule ahead of its results:

Structure (SMILES)	GI50 (T47D cells; Homo sapiens) [nM]	GI50 (VCaP cells; Homo sapiens) [nM]	GI50 (T47D cells) [nM]	GI50 (VCaP cells) [nM]	GI50 [1] [nM]	GI50 [2] [nM]
Cn1cc(-c2cc(C(C)(C)O)ccc2Oc2ccc(CC3CC4(CCN(c5ccc(C(=O)N[C@H]6CC[C@H](Oc7ccc(C#N)c(Cl)c7)CC6)nn5)CC4)C3)cc2)c2cc[nH]c2c1=O [I-130]	< 500	< 500	–	–	< 500	< 500
Cn1cc(-c2cc(C(C)(C)O)ccc2Oc2ccc(CC3CN(c4ccc(C(=O)N[C@H]5CC[C@H](Oc6ccc(C#N)c(Cl)c6)CC5)nn4)C3)cc2)c2cc[nH]c2c1=O [I-131]	< 500	< 500	–	–	< 500	< 500
Cn1cc(-c2cc(C(C)(C)O)ccc2Oc2ccc(CCOC3CCN(c4ccc(C(=O)N[C@H]5CC[C@H](Oc6ccc(C#N)c(Cl)c6)CC5)nn4)CC3)c(F)c2)c2cc[nH]c2c1=O [I-132]	< 500	< 500	–	–	> 3000	< 500
Cn1cc(-c2cc(C(C)(C)O)ccc2Oc2ccc(CCCCC3CN(c4ccc(C(=O)N[C@H]5CC[C@H](Oc6ccc(C#N)c(Cl)c6)CC5)nn4)C3)cc2)c2cc[nH]c2c1=O [I-133]	–	–	< 500	< 500	500 to 1500	< 500
Cn1cc(-c2cc(C(C)(C)O)ccc2Oc2ccc(CCC3C4CN(c5ccc(C(=O)N[C@H]6CC[C@H](Oc7ccc(C#N)c(Cl)c7)CC6)nn5)CC34)cc2)c2cc[nH]c2c1=O (stereo partly shown) [I-134]	–	–	< 500	< 500	> 3000	< 500
Cn1cc(-c2cc(C(C)(C)O)ccc2Oc2ccc(CCCC3CCN(c4ccc(C(=O)N[C@H]5CC[C@H](Oc6ccc(C#N)c(Cl)c6)CC5)nn4)C3)cc2)c2cc[nH]c2c1=O (stereo partly shown) [I-135]	< 500	< 500	–	–	< 500	< 500
Cn1cc(-c2cc(C(C)(C)O)ccc2Oc2ccc(C3CC(N4CCN(c5ccc(C(=O)N[C@H]6CC[C@H](Oc7ccc(C#N)c(Cl)c7)CC6)nn5)CC4)C3)cc2)c2cc[nH]c2c1=O (stereo partly shown) [I-136]	–	–	< 500	< 500	< 500	< 500
CN(C1CCN(c2ccc(C(=O)N[C@H]3CC[C@H](Oc4ccc(C#N)c(Cl)c4)CC3)nn2)CC1)C1CN(c2cccc(Oc3ccc(C(C)(C)O)cc3-c3cn(C)c(=O)c4[nH]ccc34)c2F)C1 [I-142]	< 500	< 500	–	–	< 500	< 500
CN(C1CN(c2ccc(Oc3ccc(C(C)(C)O)cc3-c3cn(C)c(=O)c4[nH]ccc34)cc2)C1)C1CN(c2ccc(C(=O)N[C@H]3CC[C@H](Oc4ccc(C#N)c(Cl)c4)CC3)nn2)C1 [I-143]	–	–	< 500	< 500	> 3000	< 500
